Publication PMC3749181, “Rapid Identification of Antifungal Compounds against Exserohilum rostratum Using High Throughput Drug Repurposing Screens” (PLoS ONE, 2013)
Where two headings read alike, the source gives them in different places.

How the values were obtained:
SH-SY5Y cells = test: SH-SY5Y cytotoxicity counter-screen (ATP content assay); assay type: cell-based, Human; details: for SH-SY5Y % Max. Resp.: Table 2, SH-SY5Y, inact. = no significant activity at 46 µM; for SH-SY5Y % M. Res. / SH-SY5Y IC50: Table S1; for SH-SY5Y % M. Res.: Inact. = no significant activity at 46 µM; for SH-SY5Y IC50: Inact. = no significant activity at the highest compound concentration (46 µM)
Description: Human neuroblastoma SH-SY5Y cell line (Catalog No. CRL-2266) was purchased from ATCC (Manassas, VA). SH-SY5Y cell line was cultured in 175-cm^2 tissue culture flasks (Costar, Cambridge, MA) with 30 ml of growth medium at 37°C in a 5% CO2 humidified atmosphere. Growth medium was made with Dulbecco's Modified Eagle Medium: Nutrient Mixture F-12 with 10% fetal bovine serum (FBS). Growth medium was replaced every other day and cells were passed at 75% confluence.
(§1) The ATPLite assay kit, consisting of luciferase/luciferin and detergent, was used to quantitate cellular ATP levels as a marker for cell viability (Table 1). For assay development, hyphal fragments or conidia in PBS were plated in a seeding density of 3,750, 7,500 and 15,000 cellular particles/well with a final volume of 5 µl/well using the Multidrop-Combi dispenser in white 1536-well plates. Conidia or hyphae fragments were incubated for 24 h at 37°C in a 5% CO2 humidified atmosphere. ATPLite detection reagents were added at 4 µl/well. The assay plates were incubated at room temperature for 15 minutes before reading luminescence intensity on a ViewLux plate reader (Perkin Elmer, Waltham, MA). Conidia suspended in RPMI medium were inoculated at concentrations of 62.5, 125 and 250 conidia/well with a final volume of 5 µl/well in white 1536-well plates. The conidia assay was developed and optimized in the same way as the hyphal assay.
Two small known compound libraries including the LOPAC (1280 compounds) and approved drugs (4096 compounds) were screened in parallel using the above optimized assays for hyphae and conidia in 1536-well plates (Fig. 4). […] A mammalian SH-SY5Y cell line was used in parallel as a counter-screen with the same ATP content assay kit to assess the specificity of these compounds for E. rostratum.

[1] = tested on: E. rostratum hyphal fragments; test: hyphal fragment fungicidal ATP content assay (PBS, 1536-well); assay type: cell-based, Exserohilum rostratum; details: for Emax / IC50: Exserohilum rostratum
Description: (§2) Conidia and hyphae of E. rostratum were obtained as described by Richard et al., with the following modifications. Briefly, conidia were harvested from Potato Dextrose Agar (PDA) cultured media with 0.05% Tween 80, and the conidial suspension was filtered using a Cell Strainer (100 µm, BD Falcon REF 352340). After centrifugation at 700g for 10 min, the suspension was decanted and conidia were resuspended at 1×10^5 per ml in RPMI and counted in a hemocytometer. Hyphae were harvested from yeast extract peptone dextrose (YPD) culture media with 0.05% Tween 80. Hyphal fragments were sized by vortexing 15 sec twice with 0.4 mm glassbeads, and the hyphae suspension was filtered by cheese cloth twice. […] To normalize concentrations of hyphal fragments for batch to batch consistency, carbohydrate analysis was performed by a phenol-sulfuric acid method as previously described. The final stock concentration of hyphae was adjusted to 1.0 (OD490) per 100 µl.
as §1
(§3) The LOPAC library (Sigma-Aldrich) has been extensively used for HTS assay validations, [18]. The NIH Chemical Genomics Center Pharmaceutical (NPC) collection was constructed in-house through a combined effort of compound purchasing and custom synthesis and recently expanded to 4096 compounds. […] 2.5 µl/well PBS was dispensed into 1536-well plates using a Multidrop-Combi dispenser. Compound in DMSO solution was transferred in a volume of 23 nl/well using a NX-TR pintool station (WAKO Scientific Solutions, San Diego, CA). This additional PBS step for compound addition was designed to prevent the potential fungal contamination of compound libraries. The hyphal fragments in PBS were then added at 2.5 µl/well for a final seeding density of 15,000 hyphal fragments/well using the Multidrop-Combi dispenser. The final compound concentration was 46 µM in the primary screen. The assay plates were incubated for 24 h at 30°C before the detection of cellular viability with the ATP content assay. Screen of conidia was performed in a similar way except that PBS was replaced with RPMI medium and conidia were plated for a final seeding density of 250 conidia/well.
(§4) The primary screen data and curve fitting were analyzed using software developed internally at the NIH Chemical Genomics Center (NCGC). Total signals for cellular viability (100% cellular viability) were calculated from the wells with DMSO solvent and the complete cell killing (0% cellular viability) was calculated from 46 µM amphotericin B treated wells. […] All values were expressed as the mean +/− SD (n≥3).

[2] = tested on: E. rostratum hyphal fragments; test: colony formation assay of hyphal fragments; assay type: cell-based, Exserohilum rostratum; details: 2 times respective IC50, 37°C, 24 h; p<0.01
Description: 10 µl of hyphal suspension (processed as described above) was transferred to 1.7 mL microfuge tubes, each containing 28 nM amphotericin B, 242 nM posaconazole, or 10% DMSO in 1 ml PBS. Tubes containing hyphae and drug were incubated at 37°C in a shaking incubator for 24 h, then 200 µl of the hyphae drug suspension was spread on Yeast Extract Peptone Dextrose (YPD) plates for 24 h at 30°C and the number of colony forming units were scored. The experiments were performed in triplicate.
Mixtures were cultured at 37°C in a shaking incubator for 24 h, then the hyphal suspensions were inoculated on Yeast Extract Peptone Dextrose (YPD) plates that were incubated for 1 day. The number of colonies on each YPD plate was counted.

E. rostratum conidia = test: conidia growth inhibition ATP content assay (RPMI, 1536-well); assay type: cell-based, Exserohilum rostratum; details: for IC50 / Emax: Exserohilum rostratum
Description: as §2, §1, §3, §4

[3] = Table 2, 46 µM Amphotericin B = 100%, inact. = no significant activity in the primary screen, read-out: Hyphae % Max. Resp.
[4] = Table 2, 24 h, inact. = no significant activity in the primary screen, read-out: Hyphae IC50
[5] = Table S1, 46 µM Amphotericin B = 100%, Inact. = no significant activity in the primary screen, read-out: Hyphae % M. Res.
[6] = 24 h, Table 2, 24 h, inact. = no significant activity at the highest compound concentration (46 µM), read-out: Conidia IC50
[7] = Table 2, 46 µM Amphotericin B = 100%, inact. = no significant activity at 46 µM, read-out: Conidia % Max. Resp.
[8] = Table S1, 46 µM Amphotericin B = 100%, Inact. = no significant activity at 46 µM, read-out: Conidia % M. Res.

SMILES	SH-SY5Y % Max. Resp. (SH-SY5Y cells; 46 µM Amphotericin B = 100%)	SH-SY5Y % Max. Resp. (SH-SY5Y cells)	SH-SY5Y % M. Res. (SH-SY5Y cells; 46 µM Amphotericin B = 100%)	SH-SY5Y IC50 (SH-SY5Y cells)	Emax [1, 3] [%]	IC50 [1, 4] [µM]	Emax [1, 5] [%]	hyphae-derived colony forming units (CFU) compared to DMSO control [2]	IC50 (E. rostratum conidia; [6]) [µM]	Emax (E. rostratum conidia; [7]) [%]	Emax (E. rostratum conidia; [8]) [%]	cytotoxicity in SH-SY5Y mammalian cells (SH-SY5Y cells; concentration up to 46 µM)	IC50 ([1]; Figure 5, read-out: IC50 Hyphae) [µM]	IC50 (E. rostratum conidia; Figure 5, read-out: IC50 Conidia) [µM]	Hyphae % M. Res. ([1]; Table S1, 46 µM Amphotericin B = 100%, Inact. = no significant activity in the primary screen)	Hyphae IC50 ([1]; Table S1, Inact. = no significant activity in the primary screen)	Conidia % M. Res. (E. rostratum conidia; Table S1, 46 µM Amphotericin B = 100%, Inact. = no significant activity at 46 µM)	Conidia IC50 (E. rostratum conidia; Table S1, Inact. = no significant activity at the highest compound concentration (46 µM))	Hyphae % Max. Resp. ([1]; Table 2, 46 µM Amphotericin B = 100%, inact. = no significant activity in the primary screen)	Hyphae IC50 ([1]; Table 2, 24 h, inact. = no significant activity in the primary screen)
N#C/C(=C1/SC[C@@H](c2ccc(Cl)cc2Cl)S1)n1ccnc1 [Luliconazole]	inact.	inact.	Inact.	Inact.	82	6.4	82	significantly reduced	4.39	100	100									
C=CC[C@@H]1/C=C(\C)C[C@H](C)C[C@H](OC)[C@H]2O[C@@](O)(C(=O)C(=O)N3CCCC[C@H]3C(=O)O[C@H](/C(C)=C/[C@@H]3CC[C@@H](O)[C@H](OC)C3)[C@H](C)[C@@H](O)CC1=O)[C@H](C)C[C@@H]2OC [Tacrolimus]	inact.	inact.			83	0.032		significantly reduced	0.024	101		no significant cytotoxicity	0.031	0.036						
CC1(C)CCC(=Cc2ccc(Cl)cc2)C1(O)Cn1cncn1 (stereo not shown) [Triticonazole]	inact.	inact.	Inact.	Inact.	74	5.82	74		6.95	100	100									
CC1(C)CCC(NC(=O)[C@@H](N)CCC(=O)O)CC1 [Neboglamine]			Inact.	Inact.											Inact.	Inact.	Inact.	Inact.		
CCC(C)(C)c1ccc(CC(C)CN2C[C@@H](C)O[C@@H](C)C2)cc1 (stereo partly shown) [Amorolfine]	inact.	inact.			81	4.51			7.86	102										
CC(C)(C)c1cc(/C=C(\C#N)C(N)=S)cc(C(C)(C)C)c1O [Tyrphostin AG 879]	inact.	inact.							6.16	92									inact.	inact.
Oc1c(Br)cc(Br)c2cccnc12 [Broxyquinoline]	100%	58.9%			96	4.51			1.6	98										
CCCCCCC(=O)CCCCCC/C=C/C[C@@H](O)[C@H](O)[C@@](N)(CO)C(=O)O [Myriocin]	inact.	inact.			81	2.75			13.6	92										
